Activity calls are given as the source filed them. How the calls were made is not given here.
Tested on: Clostridioides difficile clinical isolate growth, OD600, 24 h
Assay: C. difficile growth inhibition, confirmation, 4-point retest (AID 1224921)

Work on `CO[C@H]1CN(C)C(=O)c2cc(NC(=O)Nc3ccc(Cl)c(Cl)c3)ccc2OC[C@H](C)NC[C@@H]1C` yielded an AC50 of 8.68 µM.

`CC(=O)N[C@H]1CC[C@H](CCNC(=O)Nc2ccc(C(F)(F)F)cc2)O[C@H]1CO` was tested, and the AC50 was 4.52 µM.

In the case of `C[C@H]1CN([C@@H](C)CO)C(=O)c2ccccc2-c2ccccc2CO[C@H]1CN(C)Cc1ccc(F)cc1`, the AC50 is reported as > 16 µM (inactive).

With `O=C(C[C@@H]1CC[C@@H]2[C@H](COC[C@@H](O)CN2C(=O)Nc2ccc(Cl)c(Cl)c2)O1)NCc1ccc(F)cc1` the AC50 was 1.87 µM.

`CCNC(=O)C[C@H]1CC[C@@H]2[C@H](COC[C@H](O)CN2C(=O)Nc2ccc(Cl)c(Cl)c2)O1` gave an AC50 of 3.02 µM.

In the case of `C[C@@H]1CN([C@@H](C)CO)C(=O)c2cccc(NC(=O)Nc3ccc4c(c3)OCO4)c2O[C@@H]1CN(C)Cc1ccc(-c2ccccc2)cc1`, the AC50 is reported as 0.665 µM.

With `C[C@@H]1CN([C@H](C)CO)C(=O)c2cc(NC(=O)Nc3ccc(C(F)(F)F)cc3)ccc2O[C@@H](C)CCCCO[C@H]1CN(C)Cc1ccc2c(c1)OCO2` the AC50 was 7.9 µM.

`CNC[C@H]1OCCCC[C@@H](C)Oc2ccc(NC(=O)Nc3ccc(C(F)(F)F)cc3)cc2C(=O)N([C@H](C)CO)C[C@H]1C` showed an AC50 of 15.4 µM.

`CO[C@H]1CN(C)C(=O)c2ccc(NC(=O)c3cccc(F)c3)cc2OC[C@@H](C)N(C(C)=O)C[C@@H]1C` was tested, and the AC50 was > 60 µM (inactive).

Compound `CO[C@H]1CN(C)C(=O)c2cc(NC(=O)Nc3ccc(Cl)c(Cl)c3)ccc2OC[C@@H](C)NC[C@@H]1C` has an AC50 of 4.39 µM.

Compound `O=C(C[C@H]1CC[C@@H]2[C@H](COC[C@@H](O)CN2C(=O)Nc2cc(Cl)cc(Cl)c2)O1)N1CCOCC1` has an AC50 of 15.3 µM.

`COc1ccccc1C#Cc1ccc([C@H]2[C@@H](C#N)N(C(=O)C3CCCCC3)[C@H]2CO)cc1` was tested, and the AC50 was 30 µM.

`C[C@@H]1CCCCO[C@@H](CN(C)CC2CC2)[C@H](C)CN([C@@H](C)CO)C(=O)c2cc(NC(=O)Nc3ccc(C(F)(F)F)cc3)ccc2O1` gave an AC50 of 17.6 µM.

`O=C(C[C@@H]1CC[C@H]2[C@@H](COC[C@@H](O)CN2C(=O)Nc2ccc(Cl)c(Cl)c2)O1)NC1CCC1` was tested, and the AC50 was 3.86 µM.

With `CO[C@@H](CN(C)C(=O)C1CCOCC1)[C@@H](C)CN(C(=O)Nc1ccc(C(F)(F)F)cc1)[C@@H](C)CO` the AC50 was 3.66 µM.

`C[C@@H]1CCCCO[C@@H](CN(C)CC2CCCCC2)[C@H](C)CN([C@H](C)CO)C(=O)c2cc(NC(=O)Nc3ccc(C(F)(F)F)cc3)ccc2O1` was tested, and the AC50 was 16.2 µM.

`O=C(C[C@H]1CC[C@@H](NC(=O)CCN2CCCCC2)[C@H](CO)O1)Nc1nccs1` was tested, and the AC50 was > 60 µM (inactive).

With `O=C(C[C@H]1CC[C@@H]2[C@H](COC[C@H](O)CN2C(=O)Nc2cc(Cl)cc(Cl)c2)O1)N1CCOCC1` the AC50 was 9.61 µM.

In the case of `CC(C)NC(=O)N1[C@H](CO)[C@@H](c2ccc(-c3ccc(F)cc3)cc2)[C@@H]1C#N`, the AC50 is reported as 22.6 µM.

In the case of `CCCNC(=O)N1[C@@H](C#N)[C@H](c2ccc(C#Cc3ccc(F)cc3)cc2)[C@@H]1CO`, the AC50 is reported as 36.3 µM.

`C[C@@H]1CCCCO[C@H](CN(C)CC2CCCCC2)[C@H](C)CN([C@@H](C)CO)C(=O)c2cc(NC(=O)Nc3ccc(C(F)(F)F)cc3)ccc2O1` gave an AC50 of 10.4 µM.

`Cc1cc(C(=O)Nc2cccc3c2O[C@@H](CN(C)Cc2ccc(-c4ccccc4)cc2)[C@H](C)CN([C@@H](C)CO)C3=O)n(C)n1` showed an AC50 of 1.01 µM.

For `COc1ccc(C#Cc2cnc3c(c2)C(=O)N([C@@H](C)CO)C[C@@H](C)[C@H](CN(C)CC2CCCC2)O3)cc1`, the AC50 was 13.1 µM.

For `C[C@@H]1CCCCO[C@H](CN(C)CC2CC2)[C@H](C)CN([C@@H](C)CO)C(=O)c2cc(NC(=O)Nc3ccc(C(F)(F)F)cc3)ccc2O1`, the AC50 was 16 µM.

Work on `C[C@@H]1CN([C@H](C)CO)S(=O)(=O)c2ccc(C#CCC3CCCC3)cc2O[C@H]1CN(C)C` yielded an AC50 of 16.9 µM.

For `O=C(C[C@@H]1CC[C@H]2[C@@H](COC[C@H](O)CN2C(=O)Nc2cc(Cl)cc(Cl)c2)O1)N1CCOCC1`, the AC50 was 17.6 µM.

For `C[C@H](CO)N1C[C@H](C)[C@@H](CN(C)Cc2ccccc2)Oc2ccc(NC(=O)Nc3ccc(C(F)(F)F)cc3)cc2CC1=O`, the AC50 was 31.4 µM.

`C[C@H]1CN([C@@H](C)CO)S(=O)(=O)c2ccc(C#Cc3cccc(F)c3)cc2O[C@H]1CN(C)C` was tested, and the AC50 was 24.8 µM.

Work on `O=C(C[C@@H]1CC[C@@H]2[C@H](COC[C@H](O)CN2C(=O)Nc2cc(Cl)cc(Cl)c2)O1)N1CCCCC1` yielded an AC50 of 1.41 µM.

`CO[C@@H]1CN(C)C(=O)c2cc(NC(=O)Nc3ccc(Cl)c(Cl)c3)ccc2OC[C@H](C)NC[C@H]1C` was tested, and the AC50 was 6.72 µM.

Work on `CS(=O)(=O)N1[C@H](CO)[C@@H](c2ccc(C#CC3CCCCC3)cc2)[C@@H]1C#N` yielded an AC50 of 17.6 µM.

For `N#C[C@@H]1[C@H](c2ccc(C#Cc3ccc(F)cc3)cc2)[C@@H](CO)N1C(=O)C1CCCC1`, the AC50 was > 70 µM (inactive).

For `O=C(NCC[C@H]1CC[C@H](NC(=O)C2CC2)[C@@H](CO)O1)Nc1ccc(C(F)(F)F)cc1`, the AC50 was 15.6 µM.

`C[C@@H]1CN([C@H](C)CO)C(=O)c2cccc(NC(=O)Nc3ccc(C(F)(F)F)cc3)c2O[C@@H]1CN(C)Cc1ccc(Oc2ccccc2)cc1` showed an AC50 of 18.8 µM.

For `C[C@H]1CN([C@@H](C)CO)S(=O)(=O)c2ccc(C#CC3CCCCC3)cc2O[C@H]1CN(C)C`, the AC50 was 16.4 µM.

`O=C(C[C@@H]1CC[C@@H]2[C@H](COC[C@@H](O)CN2C(=O)Nc2ccc(C(F)(F)F)cc2)O1)NCCc1ccncc1` gave an AC50 of 4.07 µM.

With `O=C(NCC[C@H]1CC[C@H](NC(=O)c2cccnc2)[C@@H](CO)O1)Nc1ccc(C(F)(F)F)cc1` the AC50 was 1.79 µM.

`CO[C@H]1CN(C)C(=O)c2ccc(NC(=O)Nc3cc(Cl)cc(Cl)c3)cc2OC[C@H](C)NC[C@H]1C` gave an AC50 of 14 µM.

For `Cn1cnc(CCNC(=O)C[C@@H]2CC[C@@H]3[C@H](COC[C@H](O)CN3C(=O)Nc3ccc(C(F)(F)F)cc3)O2)c1`, the AC50 was 19.6 µM.

With `O=C(C[C@@H]1CC[C@H]2[C@@H](COC[C@@H](O)CN2C(=O)Nc2ccc(Cl)c(Cl)c2)O1)NCc1ccccc1` the AC50 was 1.6 µM.

For `O=C(C[C@@H]1CC[C@@H]2[C@H](COC[C@H](O)CN2Cc2ccc(Oc3ccccc3)cc2)O1)N1CCCCC1`, the AC50 was 20.6 µM.

`O=C(C[C@H]1CC[C@H]2[C@@H](COC[C@@H](O)CN2C(=O)Nc2ccc(Cl)c(Cl)c2)O1)NCc1ccc(F)cc1` was tested, and the AC50 was 1.36 µM.

Work on `CO[C@H]1CN(C)C(=O)c2cc(NC(=O)Nc3cc(Cl)cc(Cl)c3)ccc2OC[C@H](C)NC[C@H]1C` yielded an AC50 of 11.6 µM.

`CO[C@H](CN(C)C(=O)C1CC1)[C@H](C)CN(C(=O)Nc1ccc(C(F)(F)F)cc1)[C@H](C)CO` was tested, and the AC50 was 2.98 µM.

For `O=C(C[C@H]1CC[C@H]2[C@@H](COC[C@H](O)CN2C(=O)Nc2ccc(Cl)c(Cl)c2)O1)NCc1ccc(F)cc1`, the AC50 was 2.08 µM.

For `COc1ccccc1CNC(=O)C[C@@H]1CC[C@@H]2[C@H](COC[C@@H](O)CN2C(=O)Nc2ccc(C(F)(F)F)cc2)O1`, the AC50 was 1.6 µM.

`CO[C@H](CN(C)C(=O)C1CC1)[C@@H](C)CN(C(=O)Nc1ccc(C(F)(F)F)cc1)[C@H](C)CO` gave an AC50 of 3.59 µM.

For `C[C@@H]1CCCCO[C@H](CN(C)Cc2ccc3c(c2)OCO3)[C@@H](C)CN([C@@H](C)CO)C(=O)c2cc(NS(=O)(=O)c3cccs3)ccc2O1`, the AC50 was 13.8 µM.

`C[C@@H]1CN([C@@H](C)CO)C(=O)c2cccc(NC(=O)Nc3ccc(C(F)(F)F)cc3)c2O[C@@H]1CN(C)Cc1ccc(-c2ccccc2)cc1` was tested, and the AC50 was < 0.5 µM.

`O=C(C[C@H]1CC[C@@H]2[C@H](COC[C@@H](O)CN2S(=O)(=O)c2ccccc2)O1)NCC1CCCCC1` was tested, and the AC50 was 15.5 µM.

Compound `O=C1C[C@@](C(=O)NCCN2CCOCC2)(c2ccc([N+](=O)[O-])cc2)[C@@H](c2ccc(CO)cc2I)N1CC12CC3CC(CC(C3)C1)C2` has an AC50 of 18.8 µM.

`CCC(=O)Nc1ccc2c(c1)C(=O)N(C)C[C@@H](OC)[C@H](C)CN(C(=O)NC(C)C)[C@@H](C)CO2` was tested, and the AC50 was > 60 µM (inactive).

In the case of `O=C(C[C@@H]1CC[C@@H]2[C@H](COC[C@H](O)CN2C(=O)Nc2ccc(Cl)c(Cl)c2)O1)NCc1ccccc1`, the AC50 is reported as 2.01 µM.

With `CO[C@H](CN(C)C(=O)C1CC1)[C@@H](C)CN(C(=O)Nc1ccc(C(F)(F)F)cc1)[C@@H](C)CO` the AC50 was 6.86 µM.

`O=C(C[C@@H]1CC[C@@H]2[C@H](COC[C@@H](O)CN2C(=O)Nc2ccc(Cl)c(Cl)c2)O1)NC1CCC1` was tested, and the AC50 was 2.82 µM.

For `CCCNC(=O)C[C@@H]1CC[C@@H]2[C@H](COC[C@H](O)CN2C(=O)Nc2ccc(Cl)c(Cl)c2)O1`, the AC50 was 3.54 µM.

In the case of `COc1ccccc1S(=O)(=O)N(C)C[C@H]1OCc2ccccc2-c2c(n(C)c3ccccc23)C(=O)N([C@H](C)CO)C[C@@H]1C`, the AC50 is reported as > 60 µM (inactive).

With `O=C(C[C@@H]1CC[C@@H]2[C@H](COC[C@@H](O)CN2C(=O)Nc2cccc(Cl)c2)O1)N1CCCCC1` the AC50 was 18.7 µM.

Work on `O=C(C[C@@H]1CC[C@H]2[C@@H](COC[C@@H](O)CN2C(=O)Nc2ccc(C(F)(F)F)cc2)O1)NCC1CC1` yielded an AC50 of 3.98 µM.

`O=C(NCC[C@@H]1CC[C@@H](NC(=O)C2CC2)[C@@H](CO)O1)Nc1ccc(C(F)(F)F)cc1` gave an AC50 of 10.7 µM.

For `O=C(C[C@@H]1CC[C@H]2[C@@H](COC[C@H](O)CN2C(=O)Nc2ccc(Cl)c(Cl)c2)O1)NCc1ccc(Cl)c(Cl)c1`, the AC50 was 1.1 µM.

`CC(C)CC#Cc1ccc2c(c1)O[C@H](CN(C)Cc1ccc(C(=O)O)cc1)[C@@H](C)CN([C@H](C)CO)S2(=O)=O` was tested, and the AC50 was 17.9 µM.

`CO[C@@H](CN(C)C(=O)C1CC1)[C@@H](C)CN(C(=O)Nc1ccc(C(F)(F)F)cc1)[C@H](C)CO` showed an AC50 of 14.7 µM.

`CO[C@@H](CN(C)Cc1cc(F)ccc1F)[C@H](C)CN(C(=O)Nc1ccc(C(F)(F)F)cc1)[C@H](C)CO` showed an AC50 of 5.25 µM.

With `C[C@H]1CN([C@@H](C)CO)C(=O)c2cccc(NC(=O)Nc3ccc(C(F)(F)F)cc3)c2O[C@@H]1CN(C)C(=O)Nc1ccccc1` the AC50 was 32.2 µM.

Work on `C[C@H]1CN([C@@H](C)CO)C(=O)c2cccc(NC(=O)Nc3ccccc3)c2O[C@H]1CN(C)C(=O)Nc1ccc(C(F)(F)F)cc1` yielded an AC50 of 28.2 µM.

In the case of `CO[C@@H]1CN(C)C(=O)c2cc(NC(=O)C3CCCC3)ccc2OC[C@@H](C)N(C(=O)Nc2ccc(C(F)(F)F)cc2)C[C@H]1C`, the AC50 is reported as 26.6 µM.

In the case of `C[C@H](CO)N1C[C@H](C)[C@H](CN(C)C(=O)Nc2cccc3ccccc23)Oc2c(NC(=O)Nc3ccc(C(F)(F)F)cc3)cccc2C1=O`, the AC50 is reported as 31.7 µM.

`COc1ccc(S(=O)(=O)Nc2ccc3c(c2)C(=O)N([C@@H](C)CO)C[C@H](C)[C@@H](CN(C)Cc2ccc4c(c2)OCO4)OCCCC[C@@H](C)O3)cc1` showed an AC50 of 6.68 µM.

Compound `CCC(=O)N[C@@H]1CC[C@@H](CCNC(=O)Nc2ccc(C(F)(F)F)cc2)O[C@H]1CO` has an AC50 of 2.75 µM.

Compound `CCNC(=O)C[C@@H]1CC[C@@H]2[C@H](COC[C@@H](O)CN2C(=O)Nc2ccc(Cl)c(Cl)c2)O1` has an AC50 of 16.5 µM.

Work on `O=C(C[C@H]1CC[C@@H]2[C@H](COC[C@@H](O)CN2C(=O)Nc2ccc(Cl)c(Cl)c2)O1)NCc1ccc(F)cc1` yielded an AC50 of 2.15 µM.
